We go through one molecule from paper PMC6231127, “The structure of the deubiquitinase USP15 reveals a misaligned catalytic triad and an open ubiquitin-binding channel” (The Journal of Biological Chemistry, 2018).

For assay [1], the target named is T1, FL-USP15 (Homo sapiens, UniProt Q9Y4E8).
T1 sequence (Q9Y4E8 2-952 isoform Q9Y4E8-2): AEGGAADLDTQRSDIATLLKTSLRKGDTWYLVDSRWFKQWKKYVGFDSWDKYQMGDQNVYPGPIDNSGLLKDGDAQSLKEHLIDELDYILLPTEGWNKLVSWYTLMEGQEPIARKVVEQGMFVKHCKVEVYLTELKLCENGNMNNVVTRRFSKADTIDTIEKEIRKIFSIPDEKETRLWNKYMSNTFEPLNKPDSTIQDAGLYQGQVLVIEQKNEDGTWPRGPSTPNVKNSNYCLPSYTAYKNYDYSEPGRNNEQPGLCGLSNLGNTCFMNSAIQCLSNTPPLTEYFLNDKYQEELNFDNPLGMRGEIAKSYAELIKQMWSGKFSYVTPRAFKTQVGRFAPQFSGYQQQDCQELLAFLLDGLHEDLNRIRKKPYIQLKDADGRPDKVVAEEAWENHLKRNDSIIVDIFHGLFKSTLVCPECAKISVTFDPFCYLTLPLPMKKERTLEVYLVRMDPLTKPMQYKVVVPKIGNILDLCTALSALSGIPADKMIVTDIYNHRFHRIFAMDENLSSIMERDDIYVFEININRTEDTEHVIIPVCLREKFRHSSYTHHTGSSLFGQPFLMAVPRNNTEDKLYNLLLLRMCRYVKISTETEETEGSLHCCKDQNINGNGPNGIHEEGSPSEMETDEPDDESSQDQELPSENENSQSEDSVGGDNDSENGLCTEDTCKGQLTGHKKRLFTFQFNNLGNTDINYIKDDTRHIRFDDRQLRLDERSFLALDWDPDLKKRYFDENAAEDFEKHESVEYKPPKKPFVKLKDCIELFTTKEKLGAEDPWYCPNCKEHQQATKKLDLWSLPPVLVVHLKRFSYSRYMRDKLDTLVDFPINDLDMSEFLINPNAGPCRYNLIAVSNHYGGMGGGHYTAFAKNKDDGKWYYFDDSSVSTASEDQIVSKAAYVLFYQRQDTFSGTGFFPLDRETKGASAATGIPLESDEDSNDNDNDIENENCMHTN
Briefly: linear diubiquitin gel shift cleavage assay (SDS-PAGE, ImageJ). In kind it is biochemical. A general note: Mobility shift assays separate free from complexed probe on a gel.

Assay [2] has as its target T2, USP15-D1D2 (Homo sapiens, UniProt Q9Y4E8, DEL469-785).
T2 construct: two copies in the asymmetric unit
Briefly: X-ray crystal structure of complex, […] Å. Particulars: co-crystal, 0.1 M Na-Hepes pH 7.0, 14% MPD, 20 °C; S1' site near BL2 loop; ligand density in one of two copies. The class given is binding.

As for `O=C1c2c(O)ccc(O)c2C(=O)c2c(NCCNCCO)ccc(NCCNCCO)c21` [mitoxantrone, 1,4-dihydroxy-5,8-bis[2-(2-hydroxyethylamino)ethylamino]anthracene-9,10-dione], the IC50 in assay [1] was determined as 33 ± 11 µM. Moreover, in assay [2], the “X-ray crystal structure of complex, 2.09 Å” value was “This USP15–mitoxantrone complex structure revealed predominantly hydrophobic interactions between mitoxantrone and USP15 residues”.

As a reminder, the IC50 is the concentration that inhibits the measured activity by half.
